Test [1] deals with T1, CCKB receptor (Mus musculus, UniProt P56481).
T1 construct: The whole brains from male mice (CD1 22-25g; Charles River) were removed; from tissue; host or cells: cerebral cortex membranes of male CD1 mice
T1 sequence (P56481 1-453): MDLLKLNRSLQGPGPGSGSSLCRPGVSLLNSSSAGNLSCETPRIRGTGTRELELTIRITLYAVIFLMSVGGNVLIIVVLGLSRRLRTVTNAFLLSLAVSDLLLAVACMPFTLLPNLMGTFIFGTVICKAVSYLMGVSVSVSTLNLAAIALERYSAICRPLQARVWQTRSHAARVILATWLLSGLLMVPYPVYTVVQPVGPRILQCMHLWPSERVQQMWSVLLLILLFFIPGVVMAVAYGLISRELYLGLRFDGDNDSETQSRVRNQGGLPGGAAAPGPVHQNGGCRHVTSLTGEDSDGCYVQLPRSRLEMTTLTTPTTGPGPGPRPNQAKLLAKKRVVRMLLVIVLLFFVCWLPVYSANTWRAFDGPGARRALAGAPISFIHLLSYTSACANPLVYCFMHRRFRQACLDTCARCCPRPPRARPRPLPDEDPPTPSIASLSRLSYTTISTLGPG
Kind of test: radioligand binding assay at the CCKB receptor in mouse cortical membranes. The following applies: [125I]-CCK8S 200pM, 150 min at 21 ± 3°C, read-out: CCKB pKi (converted). The protocol:
The compounds of the examples were tested for binding at the CCKB receptor in mouse cortical membranes by means of a radioligand binding assay. The procedure was as follows:
The whole brains from male mice (CD1 22-25g; Charles River) were removed and placed in ice-cold buffer (pH7.2 @ 21 ± 3°C) of the following composition (mM); 10 HEPES, 130 NaCl, 4.7 KCl, 5 MgCl2, 1 EDTA and containing 0.25g.l^-1 bacitracin. The cortex was dissected, weighed and homogenised in 40ml ice-cold buffer using a Teflon-in-glass homogeniser. The homogenate was centrifuged at 39,800g for 20 min at 4°C, the supernatant discarded and the pellet resuspended by homogenisation in fresh buffer. The homogenate was recentrifuged (39,800g; 20 min @ 4°C) and the final pellet was resuspended in HEPES buffer to give a tissue concentration of 2mg.ml^-1(original wet weight).
The assay was terminated by rapid filtration through pre-soaked Whatman GF/B filters using a Brandell Cell harvester. The filters were washed (3 x 3ml) with ice-cold 50mM Tris-HCl (pH7.4 @ 4°C) and bound radioactivity determined by counting (1 min.) in a gamma-counter.

The target of test [2] is T2, gastrin (Rattus norvegicus, UniProt P30553).
T2 construct: The stomach was excised and flushed with ca. 1 ml of unbuffered physiological saline solution; from tissue; host or cells: isolated whole stomach of immature rats (33-50 g, ca. 21 days old)
T2 sequence (P30553 1-452): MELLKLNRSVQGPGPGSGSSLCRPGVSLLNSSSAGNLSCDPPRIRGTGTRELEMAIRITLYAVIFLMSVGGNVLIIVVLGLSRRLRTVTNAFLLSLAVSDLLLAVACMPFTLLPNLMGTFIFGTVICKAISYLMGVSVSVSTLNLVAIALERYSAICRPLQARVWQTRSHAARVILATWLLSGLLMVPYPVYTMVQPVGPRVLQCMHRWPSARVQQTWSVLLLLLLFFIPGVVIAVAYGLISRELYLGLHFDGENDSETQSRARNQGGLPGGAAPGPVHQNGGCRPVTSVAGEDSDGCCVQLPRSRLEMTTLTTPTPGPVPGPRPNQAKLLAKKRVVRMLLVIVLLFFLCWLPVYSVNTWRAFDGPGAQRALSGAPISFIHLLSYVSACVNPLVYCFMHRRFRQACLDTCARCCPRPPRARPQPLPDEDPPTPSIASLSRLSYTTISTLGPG
Kind of test: gastrin antagonist activity in an immature rat stomach assay. The following applies: isolated immature rat stomach, cumulative pentagastrin dose-response curves, acid secretion; read-out: Gastrin pKB (converted). The method, then:
The compounds of the examples were also tested for gastrin antagonist activity in an immature rat stomach assay. The procedure was as follows: The oesophagus of immature rats (33-50 g, ca. 21 days old) was ligated at the level of the cardiac sphincter and the duodenal sphincter was cannulated. The stomach was excised and flushed with ca. 1 ml of unbuffered physiological saline solution. The fundus was punctured and cannulated. A further 4-5 ml of unbuffered solution was flushed through the stomach to ensure the preparation was not leaking. […] The stomach was continuously perfused at a rate of 1 ml min^-1 with unbuffered solution gassed with 100% O2 with the perfusate passing over an internally referenced pH-electrode fixed 12 cm above the stomach. After 120 min of stabilisation the drugs were added directly to the serosal solution in the organ bath and after a further 60 min cumulative pentagastrin dose-response curves were started.

In test [3] the target is T3, CCKA (Cavia porcellus, UniProt Q63931).
T3 construct: The pancreatata were removed from male guinea-pigs (200-300g; Dunkin Hartley); from tissue; host or cells: pancreas membranes of male Dunkin Hartley guinea-pigs
T3 sequence (Q63931 1-430): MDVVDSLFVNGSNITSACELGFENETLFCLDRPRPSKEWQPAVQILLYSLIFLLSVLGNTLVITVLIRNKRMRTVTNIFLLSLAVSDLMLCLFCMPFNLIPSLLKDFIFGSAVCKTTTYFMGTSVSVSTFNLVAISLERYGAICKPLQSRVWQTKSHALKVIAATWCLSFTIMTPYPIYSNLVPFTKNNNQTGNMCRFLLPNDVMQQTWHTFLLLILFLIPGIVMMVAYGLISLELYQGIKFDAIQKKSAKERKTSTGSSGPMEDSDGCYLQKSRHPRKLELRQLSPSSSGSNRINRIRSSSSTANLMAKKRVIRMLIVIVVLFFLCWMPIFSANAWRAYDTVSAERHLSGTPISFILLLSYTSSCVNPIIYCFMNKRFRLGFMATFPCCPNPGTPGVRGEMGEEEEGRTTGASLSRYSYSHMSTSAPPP
Description: CCKA binding assay in guinea-pig pancreas membranes. The following applies: [125I]-CCK8(S) 200pM, containing 0.375 µM PD134,308, read-out: CCKA pKi (converted). The protocol: The compounds of the examples were also tested in a CCKÅ binding assay as follows:
The pancreatata were removed from male guinea-pigs (200-300g; Dunkin Hartley) and placed in ice-cold HEPES buffer (pH 7.2 @ 21 ± 3° ). The pancreatata were homogenised in 40 ml ice-cold HEPES buffer using a polytron (Brinkmann, PT10, setting 10) 4 x 1 second.
The homogenate was centrifuged at 39,800g for 15 min at 4°. The supernatant was discarded and the pellet re-suspended using a Teflon-in-glass homogeniser in 20 volumes of fresh buffer and recentrifuged as above. The final pellet was re-suspended using a Teflon-in-glass homogeniser to a tissue concentration of 1 mg.ml^-1 (original wet weight), and filtered through 500 µm pore-size Nytex mesh.
The membranes (400µl; containing 0.375 µM PD134,308) are incubated for 150 minutes at 21 ± 3° in a final volume of 0.5ml with HEPES buffer containing [^125I]-CCK8(S) (50µl; 200pM) and competing compound. Total and non-specific binding of [^125I]-CCK8 (S) are defined using 50µl of buffer and 50µl of 100nM L-364,718 respectively. The assay is terminated by rapid filtration through pre-soaked Whatman GF/B filters using a Brandell Cell Harvester. The filters were washed (3 x 3ml) with ice-cold 50mM Tris HCl (pH 7.4 at 4° ) and bound radioactivity is determined by counting (1 min) in a gamma counter.

Each structure is given as a SMILES string.

On to `O=C(O)c1cc(NC(=O)[C@H](Cc2ccccc2)NC(=O)C2C3c4ccccc4C(c4ccccc43)C2C(=O)NCC23CC4CC(CC(C4)C2)C3)cc(C(=O)O)c1` (single isomer, unassigned) [Example 2, cis-7-(1S-(3,5-dicarboxyphenylaminocarbonyl) -2-phenylethylaminocarbonyl)-8-(1-adamantanemethylaminocarbonyl)-2,3,5,6-dibenzobicyclo[2.2.2] octane], for which the results for the Ki in test [1] and in test [3] were 15.8 nM and 501 nM, respectively. The Kb in test [2] is 50.1 nM.
For `O=C(O)c1cc(NC(=O)[C@H](Cc2ccc(Cl)cc2)NC(=O)C2C3c4ccccc4C(c4ccccc43)C2C(=O)NCC23CC4CC(CC(C4)C2)C3)cc(C(=O)O)c1` (single isomer, unassigned) [Example 11, cis-7-(1S-(3,5-dicarboxyphenylaminocarbonyl)-2-(4-chlorophenyl)ethylaminocarbonyl)-8-(1-adamantanemethylaminocarbonyl) -2,3,5,6-dibenzobicyclo[2.2.2]octane] the same measures were 251 nM, 50.1 nM and 100 nM.
For `COc1ccc(C[C@H](NC(=O)C2C3c4ccccc4C(c4ccccc43)C2C(=O)NCC23CC4CC(CC(C4)C2)C3)C(=O)Nc2cc(C(=O)O)cc(C(=O)O)c2)cc1` (single isomer, unassigned) [Example 12, cis-7-(1S-(3,5-dicarboxyphenylaminocarbonyl)-2-(4-methoxyphenyl) -ethylaminocarbonyl)-8-(1-adamantanemethylaminocarbonyl) -2,3,5,6-dibenzobicyclo[2.2.2]octane], the figures for the Ki in test [1] and in test [3] were 100 nM and 1580 nM, respectively. In addition, the Kb in test [2] was 63.1 nM.
For `O=C(O)c1cc(NC(=O)[C@H](Cc2ccccc2Cl)NC(=O)C2C3c4ccccc4C(c4ccccc43)C2C(=O)NCC23CC4CC(CC(C4)C2)C3)cc(C(=O)O)c1` (stereo partly drawn) [Example 20, cis-7-(1S-(3,5-dicarboxyphenylaminocarbonyl)-2-(2-chlorophenyl) -ethylaminocarbonyl)-8-(1-adamantanemethylaminocarbonyl) -2,3,5,6-dibenzobicyclo [2.2.2] octane] the same measures were 10 nM, 2000 nM and 6.31 nM.
For `O=C(O)c1cc(NC(=O)[C@@H](NC(=O)C2C3c4ccccc4C(c4ccccc43)C2C(=O)NCC23CC4CC(CC(C4)C2)C3)c2ccccc2)cc(C(=O)O)c1` (stereo partly drawn) [Example 39, cis-7-(1S-(3,5-dicarboxyphenylaminocarbonyl) -3-phenylmethylaminocarbonyl)-8-(1-adamantanemethylaminocarbonyl) -2,3,5,6-dibenzobicyclo[2.2.2]octane] the same measures were 501 nM, 2510 nM and 398 nM.
In the same order, the values of `O=C(O)c1cc(NC(=O)[C@H](Cc2cccc(F)c2)NC(=O)C2C3c4ccccc4C(c4ccccc43)C2C(=O)NCC23CC4CC(CC(C4)C2)C3)cc(C(=O)O)c1` (single isomer, unassigned) [Example 19, cis-7-(1S-(3,5-dicarboxyphenylaminocarbonyl)-2-(3-fluorophenyl)ethylaminocarbonyl)-8-(1-adamantanemethylaminocarbonyl) -2,3,5,6-dibenzobicyclo[2.2.2]octane] are 10 nM, 398 nM and 25.1 nM.
Take `O=C(O)c1cc(NC(=O)[C@H](Cc2ccccc2F)NC(=O)C2C3c4ccccc4C(c4ccccc43)C2C(=O)NCC23CC4CC(CC(C4)C2)C3)cc(C(=O)O)c1` (single isomer, unassigned) [Example 16, cis-7-(1S-(3,5-dicarboxyphenylaminocarbonyl)-2-(2-fluorophenyl)-ethylaminocarbonyl)-8-(1-adamantanemethylaminocarbonyl) -2,3,5,6-dibenzobicyclo[2.2.2]octane]: the figures for the Ki in test [1] and in test [3] were 3.16 nM and 1000 nM, respectively. For the same compound, in test [2], the Kb was 2.51 nM.
Take `O=C(O)c1cc(NC(=O)[C@H](Cc2ccccc2)NC(=O)C2C3c4ccccc4C(c4ccccc43)C2C(=O)NCC23CC4CC(CC(C4)C2)C3)cc(C(=O)O)c1` (single isomer, unassigned) [Example 1, cis-7-(1S-(3,5-dicarboxyphenylamino-carbonyl) -2-phenylethylaminocarbonyl)-8-(1-adamantanemethylamino-carbonyl) -2,3,5,6-dibenzobicyclo[2.2.2] octane]: the Ki was 1.58 nM in test [1] and 2000 nM in test [3]. Besides, the Kb in test [2] is 5.01 nM.
In the case of `O=C(O)c1cc(NC(=O)[C@H](CCc2ccccc2)NC(=O)C2C3c4ccccc4C(c4ccccc43)C2C(=O)NCC23CC4CC(CC(C4)C2)C3)cc(C(=O)O)c1` (stereo partly drawn) [Example 36, cis-7-(1S-(3,5-dicarboxyphenylaminocarbonyl) -3-phenylpropylaminocarbonyl) -8-(1-adamantanemethyl-aminocarbonyl) -2,3,5,6-dibenzobicyclo[2.2.2]octane], the Ki is 63.1 nM in test [1] and 2000 nM in test [3]. The Kb in test [2] was 31.6 nM.
